Results published in patent US7919077B2, “Pharmaceutical compositions comprising CCL2 and use of same for the treatment of inflammation” (Yeda Research and Development Co. Ltd., priority 2006, dated 2011).

What was measured:
[1] = system: human T cells interacting with VCAM-1 (VLA-4); experiment: Laminar flow adhesion assay on VCAM-1 with co-immobilized CCL21; type: cell-based; conditions: low dose chemokine pretreatment
Description: (§1) Laminar flow adhesion assays—Purified VCAM-1 or ICAM-1-Fc (both from R&D Systems, Minneapolis, Minn.) were coated with or without CCL21 (R&D Systems) on polystyrene plates as previously described [Grabovsky et al., J Exp Med. (2000) 192:495-506; Sigal et al., J Immunol. (2000) 165:442-452]. The polystyrene plates were each assembled on the lower wall of the flow chamber as previously described [Feigelson et al., J Biol Chem. (2001) 276:13891-13901]. All flow experiments were conducted at 37° C. Cells were washed with cation-free H/H medium, resuspended in binding medium (H/H medium supplemented with 1 mM CaCl2 and 1 mM MgCl2) and perfused through the flow chamber at low shear stress (0.5-0.75 dyn/cm^2) for 2 minutes. Tethers were defined as transient or rolling if cells attached briefly (<2 seconds) to the substrate and as arrests if immediately arrested and remaining stationary for at least 5 seconds of continuous flow. Frequencies of adhesive categories within differently pretreated cells were determined as a percentage of cells flowing immediately over the substrates, as previously described [Grabovsky et al., supra]. To assess resistance to detachment over time, accumulated cells were subjected to a shear stress of 5 dyn/cm^2 for 5 minutes. At the indicated time points, the number of cells that remained bound was expressed relative to T cell population originally accumulated in the first 2 minute period of the assay. Over 90% of cellular tethers to VCAM-1 or ICAM-1 were blocked by pretreating cells with VLA-4 or LFA-1 blockers respectively.

[2] = system: human T cells interacting with ICAM-1 (LFA-1); experiment: Laminar flow adhesion assay on ICAM-1 with co-immobilized CCL21; type: cell-based; conditions: low dose chemokine pretreatment
Description: as §1

naive lymphocytes = experiment: Intravital microscopy of mouse subiliac LN: lymphocyte rolling and sticking in HEVs; type: in vivo, C57BL/6 mice
Description: Intravital microscopy of mouse subiliac LN—Mice were anesthetized by intraperitoneal injection of 1 mg/ml xylazine and 5 mg/ml ketamine. The right femoral artery was catheterized. The left subiliac LN was prepared for IVM as previously described [Carriere et al., Cancer Res. (2005) 65:11639-11648; M'Rini et al., J Exp Med. (2003) 198:1301-1312], and the mouse was then transferred to a customized intravital video microscopy setup (INM 100; Leica Microsystems SA, Rueil-Malmaison, France) equipped with water immersion objectives (HCX APO; Leica Microsystems SA, Rueil-Malmaison, France). Fluorescent events in the LN microcirculation were visualized and recorded by a silicon-intensified target camera (Hamamatsu Photonics, Massy, France) and stored on DVCAM video tapes (DSR-11 Sony, IEC-ASV, Toulouse, France).
For visualization of naive lymphocyte interactions with LN vascular endothelium, naïve lymphocytes obtained from single T and B cell suspensions of a control C57BL/6 pool of subiliac, axillary, brachial and mesenteric LNs were incubated in the presence or absence of CCL2 (R&D Systems, Lille, France; 1 ng/ml, 30 minutes, 37° C.), fluorescently labeled by calcein AM (Molecular Probes-Invitrogen, Cergy Pontoise, France; 0.25 microM, 5 min, 37° C.) and then injected into the right femoral artery. Cell behavior in LN venules was assessed as previously described [Carriere et al., supra; M'Rini et al., supra]. The rolling fraction was determined as the percentage of cells that rolled along the vascular lining in the total flux of cells per venule. The sticking fraction was determined as the percentage in rolling cells of cells firmly adherent for at least 10 seconds or 1 minute.

[3] = Adjuvant arthritis (AA) rat model; type: in vivo, Lewis rats; conditions: rats; CCL2 240 ng daily day 0 to day 5; scored from day 10; FIG. 9
Description: Adjuvant Arthritis (AA) induction, assessment and treatment with CCL2-—AA was induced as previously described [Kannan, Theor Biol Med Model. (2005) 2:17] using 1 mg per rat of heat-killed Mt strain H37Ra (Difco). Each experimental and control group included at least eight rats. The day of AA induction was designated as day 0 and disease severity was assessed by direct observation of all four limbs in each animal. An observer blind to the experimental procedure scored AA for clinical manifestation of disease. A relative score between 0 and 4 was assigned to each limb, based on the degree of joint inflammation, redness and deformity. The maximum possible score for an individual animal was 16 [Kannan, supra].
Immediately following AA induction, rats were divided into two groups that were injected daily (from day 0 to day 5) with low dose CCL2 (240 ng in 300 μl of PBS) or PBS as control. Starting from day 10 post induction, the disease was scored as described hereinabove.
Results were presented as the mean±SEM of the difference between the two values for all the animals in each group. Experiments were repeated at least three times and produced similar results.

effector T cells = experiment: Transwell migration of effector T cells (data not shown); type: cell-based, mice; conditions: low dose CCL2

In the case of “CCL2: mammalian (e.g., human) CCL2 protein, GenBank NM_002982 / NP_002973; murine CCL2 used in the asthma model”, the “post arrest adhesion strengthening on VCAM-1 (resistance to detachment)” value ([1]; high shear stress 5 dyn/cm^2, FIG. 6d) was “failed to develop adhesion strengthening”, the “VLA-4 activation by surface bound CCL21 (arrest on VCAM-1)” value ([1]; shear stress 0.75 dyn/cm^2, FIG. 6c) was “did not interfere” and the “post arrest adhesion strengthening on ICAM-1 (resistance to detachment)” value ([2]; high shear stress 5 dyn/cm^2, FIG. 6b) was “failed to develop adhesion strengthening”. The “LFA-1 activation by surface bound CCL21 (arrest on ICAM-1)” value ([2]; shear stress 0.5 dyn/cm^2, FIG. 6a) was “did not interfere”, the “number of firmly bound lymphocytes in the PLN venular tree” value (naive lymphocytes; 30 minutes after injection of the fluorescent cells, FIGS. 5f-g) was “striking reduction” and the “L-selectin mediated rolling in HEVs (rolling fraction)” value (naive lymphocytes; lymphocytes pre-treated with CCL2 1 ng/ml 30 minutes, FIG. 5b) was “did not significantly alter”. For the same substance, the “sticking fraction 10 seconds” value (naive lymphocytes; lymphocytes pre-treated with CCL2 1 ng/ml 30 minutes, vs control, FIG. 5c) was “comparable”, the “percentage of cells which remained adherent 1 minute after initial arrest” value (naive lymphocytes; lymphocytes pre-treated with CCL2 1 ng/ml 30 minutes, vs control, FIG. 5e) was “severe reduction” and the “percentage of cells which remained adherent 30 seconds after initial arrest” value (naive lymphocytes; lymphocytes pre-treated with CCL2 1 ng/ml 30 minutes, vs control, FIG. 5d) was “severe reduction”. For the same substance, the “adjuvant arthritis disease score (max 16)” value [3] was “significantly inhibited the onset of the disease”, the “CCL21 induced transwell migration of effector cells” value (effector T cells) was “down-regulated” and the “CXCL12 induced transwell migration of effector cells” value (effector T cells) was “down-regulated”.
